We go through 6 compounds from patent US8778966B2, “Quinolinone derivatives as PARP and tank inhibitors” (Janssen Pharmaceutica, NV, priority 2007, dated 2014).

Each structure is given as a SMILES string.

One series has as its system HCT116 cells. The experiment in a line: Antiproliferative activity, Alamar Blue assay, HCT116 cells. The class given is cell-based, human. As to conditions: Homo sapiens, HCT-116, HCT116 cells; read-out: HCT116 antiproliferative activity pIC50 (converted). How it is done:
Human colon carcinoma HCT116 cells obtained from the ATCC were cultured in McCoy's 5 A medium supplemented with 2 mM L-Glutamine, 50 μg/ml gentamicin and 10% heat inactivated fetal calf serum.
(§1) Resazurin was purchased from Aldrich (Prod. No. 199303). Potassium ferrocyanide, potassium ferricyanide, KH2PO4 and K2HPO4 were purchased from Sigma (Prod. Nos. P9387, P8131, P5655 and P8281, respectively).
(§2) Potassium Phosphate Buffer 0.1 M (PPB) was made as follows: 2.72 gram KH2PO4 and 13.86 gram K2HPO4 were dissolved in 500 ml milli-Q H2O, the pH was adjusted to pH 7.4 and the volume was brought to 1 litre with milli-Q H2O; the buffer was filter sterilised and stored at room temperature. Resazurin stock solution (PPB-A) was prepared fresh by dissolving 45 mg resazurin in 15 ml PBS. 30 mM potassium ferricyanide (PPB-B) was prepared by dissolving 0.987 gram potassium ferricyanide in 100 ml PPB. 30 mM potassium ferrocyanide (PPB-C) was prepared by dissolving 1.266 gram potassium ferrocyanide in 100 ml PPB.
(§3) Mixture of PPB-A, PPB-B and PPB-C was prepared by mixing equal volumes of the respective solutions. Resazurin work solution (herein termed “Alamar Blue” solution) was prepared by diluting said mixture 20×(vol/vol) in PPB and filter sterilising; the Alamar Blue solution could be kept at 4° C. for a maximum of 2 weeks.
(§4) For experiments in 384 wells plates the cells were seeded at a density of 4.5×10^3 cells/ml in Falcon 384-well culture plates (Life Technologies, Merelbeke, Belgium), black with clear bottom, in 45 μl culture medium. Cells were allowed to adhere to plastic for 24 hr. The tested compound was pre-diluted (1/50 in culture medium) and 5 μl pre-diluted compound was added to the wells. Following 4-day incubation, 10 μl of the Alamar Blue solution was added to each well and the cells were further incubated for 4 hrs (HCT116) or 24 hrs (PC-3) at 37° C. The fluorescence intensity was measured for each well on a Fluorescence plate reader (Fluorskan, Labsystems, 540 nm excitation and 590 nm emission)
(§5) The antiproliferative activity was calculated as percentage of remaining viable cells in treated versus control (untreated cells) conditions. Within an experiment, the result for each experimental condition is the mean of 3 replicate wells. When appropriate, the experiments were repeated to establish full concentration-response curves. When appropriate, IC50-values (concentration of the drug, needed to reduce cell growth to 50% of the control) were computed using probit analysis for graded data (Finney, D. J., Probit Analyses, 2nd Ed. Chapter 10, Graded Responses, Cambridge University Press, Cambridge 1962). Herein the effects of test compounds are expressed as pIC50 (the negative log value of the IC50-value) (see Table 2).

The next series concerns PC3 cells. Nature of the series: EB1 Comet (microtubule disruption) assay. The class given is cell-based, human. The conditions noted are these: Homo sapiens, PC-3, 1 h, 1 hour treatment, read-out: EB1 pLAC (converted). How it is done: The Eb1 Comet assay relies on the detection of the Eb1 protein at the plus end of polymerizing microtubules (Mimori-Kiyosue, 2000) using indirect immunofluorescence. Disruption of microtubule dynamics through de-polymerization or stabilization results in a de-localization of Eb1 from the growing microtubule ends and this is visualized by the disappearance of Eb1 containing cytoplasmic foci.
Briefly, human prostate cancer PC3 cells obtained from the American Type Culture Collection were grown in 96-well plates (Greiner, cat. no. 655090) in HAM's F12 medium as recommended by the provider (ATCC). The cells were treated for 1 hour at 37° C. with compounds dissolved in DMSO (0.6% final DMSO concentration). The culture medium was then removed by aspiration and the cells were fixed by adding cold methanol (−20 C). After a 15 min. incubation at −20 C, the cells were washed twice with DPBS (Gibco) containing 0.5% Triton X-100. Mouse Eb1 antibody (BD Transduction Laboratories, cat. no. 610534) was added to the cells (1/250 dilution in DPBS containing 1% BSA) and incubated overnight at room temperature. The antibody was subsequently removed and the cells washed twice with DPBS, 0.5% Triton X-100. Secondary goat anti-mouse antibody conjugated to Alexa 488 fluorescent dye (Molecular Probes) was added at a 1/500 dilution in DPBS, 1% BSA and incubated for 1 hour at 37 C. The cells were washed twice with DPBS, 0.5% Triton X-100 and then DPBS containing 0.5% Triton X-100 and 1/5000 Hoechst 33342 (Molecular Probes) was added. Microscopy based Eb1 foci visualization was carried out using an IN Cell Analyser 1000 (Amersham Biosciences) using a 20× objective. Compound dependent microtubule disruption was visually determined by the disappearance in Eb1 foci. The lowest active concentration (LAC) was determined as the concentration where Eb1 foci were absent in at least 50% of the treated cells.

Another series deals with PC-3 cells. The experiment in a line: Antiproliferative activity, Alamar Blue assay, PC-3 cells. The class given is cell-based, human. As to conditions: Homo sapiens, PC-3, PC3 cells; read-out: PC3 antiproliferative activity pIC50 (converted). As for the experimental part: Human prostate cancer PC-3 cells obtained from the ATCC were cultured in HAM′S F12 medium supplemented with 1 mM Sodium Pyruvate, 1.5 g/L Sodium Bicarbonate, 50 μg/ml gentamicin, non-essential amino acids and 10% fetal calf serum.
as §1, §2, §3, §4, §5
For orientation: Resazurin is reduced to fluorescent resorufin, in cell work by metabolically active cells.

Another series concerns the target T1, Human PARP-1 enzyme (Homo sapiens, UniProt P09874).
T1 construct: purchased Trevigen
The experiment in a line: In vitro Scintillation Proximity Assay (SPA) for PARP-1 inhibitory activity. The class given is biochemical. As to conditions: read-out: in vitro SPA assay PARP-1 pIC50 (converted). As for the experimental part:
Compounds of the present invention were tested in an in vitro assay based on SPA technology (proprietary to GE healthcare).
In principle, the assay relies upon the well established SPA technology for the detection of poly(ADP-ribosyl)ation of biotinylated target proteins, i.e histones. This ribosylation is induced using nicked DNA activated PARP-1 enzyme and [^3H]-nicotinamide adenine dinucleotide ([^3H]-NAD^+) as ADP-ribosyl donor.
Histones (type II-A, supplier: Sigma) were biotinylated using the biotinylation kit of Amersham and stored aliquoted at −20° C. A stock solution of 100 mg/ml SPA poly(vinyl toluene) (PVT) beads (supplier: Amersham) was made in PBS. A stock solution of 61.6 nM [^3H]-NAD^+ was made by adding [^3H]-NAD^+ (0.1 mCi/ml, supplier: Perkin Elmer) to incubation buffer (50 mM Tris/HCl, pH 8; 0.2 mM DTT; 4 mM MgCl2). A solution of 4 mM NAD^+ (supplier: Sigma) was made. Human PARP-1 enzyme was obtained from Trevigen. Biotinylated histones and PVT-SPA beads were mixed and pre-incubated for 30 min. at room temperature. PARP-1 enzyme (concentration was lot dependent) was mixed with the nicked DNA and the mixture was pre-incubated for 30 min. at 4° C. Equal parts of this histones/PVT-SPA beads solution and PARP-1 enzyme/DNA solution were mixed and 75 μl of this mixture together with 1 μl of compound in DMSO and 25 μl of [^3H]-NAD^+ was added per well into a 96-well microtiterplate. The final concentrations in the incubation mixture were 2 μg/ml for the biotinylated histones, 2 mg/ml for the PVT-SPA beads, 0.25 μg/ml for the nicked DNA and between 0.1-0.2 μg/ml for the PARP-1 enzyme. After incubation of the mixture for 20 min. at room temperature, the reaction was terminated by adding 100 μl of 4 mM NAD^+ in water (final concentration 2 mM) and plates were mixed. The beads were sedimented by centrifugation (10 min, 800 rpm). and plates transferred to a TopCountNXT™ (Packard) for scintillation counting, values were expressed as counts per minute (cpm). For each experiment, controls (containing PARP-1 enzyme and DMSO without compound), a blank incubation (containing DMSO but no PARP-1 enzyme, no DNA or compound) and samples (containing PARP-1 enzyme, DNA and compound dissolved in DMSO) were run in parallel. All compounds tested were dissolved and eventually further diluted in DMSO. A dose-response curve was made wherein the compounds were tested at concentrations between 10^−5M and 3×10^−9M. In each test, the blank value was subtracted from both the control and the sample values. The control sample represented maximal PARP-1 enzyme activity. For each sample, the amount of cpm was expressed as a percentage of the mean cpm value of the controls. When appropriate, IC50-values (concentration of the drug, needed to reduce the PARP-1 enzyme activity to 50% of the control) were computed using linear interpolation between the experimental points just above and below the 50% level. Herein the effects of test compounds are expressed as pIC50 (the negative log value of the IC50-value). As a reference compound, 4-amino-1,8-naphthalimide was included to validate the SPA assay.
In general terms: In a scintillation proximity assay essentially only radioactivity close to the scintillant gives light.

T1 sequence (P09874 whole entry): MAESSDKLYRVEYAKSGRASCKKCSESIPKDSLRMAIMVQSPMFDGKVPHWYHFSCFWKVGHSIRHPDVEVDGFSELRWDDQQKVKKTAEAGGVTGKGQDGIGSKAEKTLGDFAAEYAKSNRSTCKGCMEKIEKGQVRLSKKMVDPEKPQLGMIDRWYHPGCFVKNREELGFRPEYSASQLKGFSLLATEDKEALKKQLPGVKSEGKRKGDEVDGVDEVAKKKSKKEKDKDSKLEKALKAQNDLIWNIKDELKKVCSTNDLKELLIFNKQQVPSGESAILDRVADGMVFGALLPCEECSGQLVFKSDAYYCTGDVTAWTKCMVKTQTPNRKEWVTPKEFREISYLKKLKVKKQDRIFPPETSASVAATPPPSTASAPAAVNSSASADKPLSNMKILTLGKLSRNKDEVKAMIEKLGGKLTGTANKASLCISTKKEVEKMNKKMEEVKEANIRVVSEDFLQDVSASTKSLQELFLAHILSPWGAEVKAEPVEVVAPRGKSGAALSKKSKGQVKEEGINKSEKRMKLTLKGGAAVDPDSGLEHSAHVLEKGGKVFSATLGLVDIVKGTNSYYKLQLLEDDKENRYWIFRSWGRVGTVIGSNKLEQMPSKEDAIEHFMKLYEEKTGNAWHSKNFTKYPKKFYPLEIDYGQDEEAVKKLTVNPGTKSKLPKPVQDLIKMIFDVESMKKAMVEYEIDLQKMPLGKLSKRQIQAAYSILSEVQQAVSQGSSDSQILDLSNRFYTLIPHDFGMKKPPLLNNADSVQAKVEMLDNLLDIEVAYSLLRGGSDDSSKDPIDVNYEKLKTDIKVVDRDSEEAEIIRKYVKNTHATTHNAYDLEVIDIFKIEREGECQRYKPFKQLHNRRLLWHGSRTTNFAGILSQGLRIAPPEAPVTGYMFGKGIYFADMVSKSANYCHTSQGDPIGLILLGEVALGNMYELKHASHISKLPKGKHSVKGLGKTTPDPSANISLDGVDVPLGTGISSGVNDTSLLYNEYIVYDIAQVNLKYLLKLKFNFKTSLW

Take `CCc1cc2ccc(C(C)(C#N)Cc3cccc(CC#N)c3)cc2[nH]c1=O` (stereo not drawn): the melting point came to 150 °C.
As for `Cc1cc2ccc([C@](C)(C#N)[C@H]3CCCc4ccccc43)cc2[nH]c1=O` [Compound 383], the IC50 is 501 nM in the series with HCT116 cells, 1260 nM with PC-3 cells and 501 nM at Human PARP-1 enzyme. Further, the minimal effective concentration in the series on PC3 cells was 3.16 µM.
`Cc1cc2ccc(C(C)(C#N)Cc3cccc(C#CC(C)(C)O)n3)cc2[nH]c1=O` (stereo not drawn) [Compound 401]: the IC50 in the series on HCT116 cells is 3980 nM; in the series on PC-3 cells, 5010 nM; on Human PARP-1 enzyme, 398 nM. Besides, the minimal effective concentration in the series on PC3 cells is 3.16 µM.
Consider `CCc1cc2ccc(C(C)(C#N)Cc3cccc(C#N)c3C)cc2[nH]c1=O` (stereo not drawn) [Compound 4], for which the melting point was found to be 174 °C.
Turning to `Cc1cc2ccc([C@](C)(C#N)[C@H]3CCc4cc(Br)ccc43)cc2[nH]c1=O` [Compound 239], the IC50 was 2000 nM with HCT116 cells, 2510 nM in the series with PC-3 cells and 501 nM on Human PARP-1 enzyme. Also, in the series with PC3 cells, the minimal effective concentration was 1 µM.
For `CCc1cc2ccc(C(C)(C#N)Cc3ccc(OCCCN4CCOCC4)c(C#N)c3)cc2[nH]c1=O` (stereo not drawn) [Compound 5], the melting point was 153 °C.

Usually melting point stands for the temperature, or range, at which the solid turns liquid.
